Data published in the supplement of paper PMC11208160.

Assay: recombinant barcode read abundance after kanamycin selection (control-corrected) (log10(CPM+1)); higher = more efficient recombination; sequences stand for … in AGTGCAGAGAAAATCGGCCAGTTTTCTCTGCCTGCAGTCCGCATGCCGT…AGATTTATGCAGCGGACTGCCTTTCTCCCAAAGTGATAAACCGGACAGTATCATGGACCGGTTTTCCCGGTAATCCGTATTTGCAAGGTTGGTTTCACT; site = the 11-nt target
Method: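 Pooled E. coli target-specificity screen for the IS621 bridge recombinase. Each library plasmid pairs an 11-nt target (CT core) with a bridge RNA whose target-binding loop (9-nt LTG + 4-nt RTG) is reprogrammed; the rest of the 177-nt WT IS621 bridge RNA scaffold is fixed. The plasmid is co-electroporated with a WT donor plasmid; recombinase is induced with 0.1 mM IPTG and recombinants are selected on kanamycin. Recombinant barcodes are sequenced, converted to CPM, averaged over two biological replicates and corrected by the unselected control CPM. Molecule = full bridge RNA written as DNA: LTG = specificity nt 1-9, RTG = reverse complement of specificity nt 8-11, in the WT scaffold.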
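Also: IS621 recombinase and bridge RNA in Escherichia coli cells.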

| Sequence | recombinant barcode read abundance (log10) |
| --- | --- |
| AGAAGTCCTTGGGTTCTAACCTGTTGCCG (site AGAAGTCCTCA) | 0.236 |
| AGAAGTCCTTGGGTTCTAACCTGTTGCCG (site AGAAGTCCTCC) | 0.121 |
| AGAAGTCCTTGGGTTCTAACCTGTTGCCG (site AGAAGTCCTCG) | 0.971 |
| AGAAGTCCTTGGGTTCTAACCTGTTGCCG (site AGAAGTCCTCT) | 0.221 |
| AGAATAGCTTGGGTTCTAACCTGTTGCAG (site AGAATAGCTCT) | 2.13 |
| AGAATAGCTTGGGTTCTAACCTGTTGCAG (site AGGATAGCTCA) | 0.0664 |
| AGAATGTCTTGGGTTCTAACCTGTTGCCT (site AGAACGTCTAG) | 0.0676 |
| AGAATGTCTTGGGTTCTAACCTGTTGCCT (site AGAATGTCTAG) | 1.98 |
| AGACCTCCTTGGGTTCTAACCTGTTGCTT (site AGACATCCTAA) | 0.0481 |
| AGACCTCCTTGGGTTCTAACCTGTTGCTT (site AGACCTCCTAA) | 1.39 |
| AGACCTCCTTGGGTTCTAACCTGTTGCTT (site AGACGTCCTAA) | 0.138 |
| AGACCTCCTTGGGTTCTAACCTGTTGCTT (site AGACTTCCTAA) | 0.0176 |
| AGACCTTCTTGGGTTCTAACCTGTTGCCT (site ACACCGTCTAG) | 0.0168 |
| AGACCTTCTTGGGTTCTAACCTGTTGCCT (site AGACCTTCTAG) | 1.55 |
| AGACGTACTTGGGTTCTAACCTGTTGCGT (site AGACGTACTAC) | 1.82 |
| AGACGTACTTGGGTTCTAACCTGTTGCGT (site TAGTTATCTTA) | 0.102 |
| AGAGAGACTTGGGTTCTAACCTGTTGCAC (site AGAGAGACTGT) | 2.18 |
| AGAGAGACTTGGGTTCTAACCTGTTGCAC (site TGATAGACTGT) | 0.169 |
| AGAGAGACTTGGGTTCTAACCTGTTGCCT (site AGAGAGACTAG) | 2.43 |
| AGAGAGACTTGGGTTCTAACCTGTTGCCT (site AGAGCGACTAG) | 0.0685 |
| AGAGAGACTTGGGTTCTAACCTGTTGCCT (site AGAGGGACTAG) | 0.27 |

| Sequence | recombinant barcode read abundance (log10) |
| --- | --- |
| AGAGAGACTTGGGTTCTAACCTGTTGCCT (site AGAGTGACTAG) | 0.185 |
| AGAGCCTCTTGGGTTCTAACCTGTTGCTA (site AGAGCCTCTTA) | 2.36 |
| AGAGCCTCTTGGGTTCTAACCTGTTGCTA (site TTCAGGGCTCT) | 0.0371 |
| AGATCATCTTGGGTTCTAACCTGTTGCTT (site AGACCATCTAG) | 0.0425 |
| AGATCATCTTGGGTTCTAACCTGTTGCTT (site AGATCATCTAA) | 0.278 |
| AGATCCGCTTGGGTTCTAACCTGTTGCCT (site AGATCCGCTAG) | 1.3 |
| AGATCCGCTTGGGTTCTAACCTGTTGCCT (site CGGTCCGCTAG) | 0.346 |
| AGATCTCCTTGGGTTCTAACCTGTTGCCT (site AGAGCTCCTCG) | 0.231 |
| AGATCTCCTTGGGTTCTAACCTGTTGCCT (site AGATCTCCTAG) | 0.313 |
| AGATGGCCTTGGGTTCTAACCTGTTGCAT (site AGATGGACTCT) | 0.152 |
| AGATGGCCTTGGGTTCTAACCTGTTGCAT (site AGATGGCCTAT) | 0.991 |
| AGATGTACTTGGGTTCTAACCTGTTGCTG (site ACATGTACTCT) | 0.0665 |
| AGATGTACTTGGGTTCTAACCTGTTGCTG (site AGATGTACTCA) | 0.958 |
| AGATTAGCTTGGGTTCTAACCTGTTGCCG (site AGATTAGCTCG) | 1.13 |
| AGATTAGCTTGGGTTCTAACCTGTTGCCG (site GCGGATCCTTA) | 0.0251 |
| AGATTTCCTTGGGTTCTAACCTGTTGCCT (site AAATTTCCTAG) | 0.0272 |
| AGATTTCCTTGGGTTCTAACCTGTTGCCT (site ACATTTCCTAG) | 0.218 |
| AGATTTCCTTGGGTTCTAACCTGTTGCCT (site AGATTTCCTAG) | 0.326 |
| AGATTTCCTTGGGTTCTAACCTGTTGCCT (site ATATTTCCTAG) | 0.234 |
| AGCAACCCTTGGGTTCTAACCTGTTGCAA (site AGCAACCCTTT) | 0.829 |
| AGCAACCCTTGGGTTCTAACCTGTTGCAA (site CCGGGTACTCG) | 0.0862 |

| Sequence | recombinant barcode read abundance (log10) |
| --- | --- |
| AGCACAACTTGGGTTCTAACCTGTTGCCT (site AGAACAACTAG) | 0.0799 |
| AGCACAACTTGGGTTCTAACCTGTTGCCT (site AGCACAACTAG) | 0.734 |
| AGCACAACTTGGGTTCTAACCTGTTGCCT (site AGGACAACTAG) | 0.0445 |
| AGCACAACTTGGGTTCTAACCTGTTGCCT (site AGTACAACTAG) | 0.498 |
| AGCAGAGCTTGGGTTCTAACCTGTTGCAG (site AGCAGAGCTCA) | 0.631 |
| AGCAGAGCTTGGGTTCTAACCTGTTGCAG (site AGCAGAGCTCC) | 0.224 |
| AGCAGAGCTTGGGTTCTAACCTGTTGCAG (site AGCAGAGCTCG) | 0.505 |
| AGCAGAGCTTGGGTTCTAACCTGTTGCAG (site AGCAGAGCTCT) | 2.24 |
| AGCAGAGCTTGGGTTCTAACCTGTTGCCG (site AGCAGAGCTCA) | 0.0348 |
| AGCAGAGCTTGGGTTCTAACCTGTTGCCG (site AGCAGAGCTCC) | 0.058 |
| AGCAGAGCTTGGGTTCTAACCTGTTGCCG (site AGCAGAGCTCG) | 1.15 |
| AGCAGAGCTTGGGTTCTAACCTGTTGCCG (site AGCAGAGCTCT) | 0.465 |
| AGCAGTGCTTGGGTTCTAACCTGTTGCCT (site AGCAGTGCTAG) | 0.686 |
| AGCAGTGCTTGGGTTCTAACCTGTTGCCT (site AGCATTCCTAG) | 0.0332 |
| AGCATCCCTTGGGTTCTAACCTGTTGCTG (site AGCATCCCTCA) | 1.47 |
| AGCATCCCTTGGGTTCTAACCTGTTGCTG (site CATGCGACTAC) | 0.342 |
| AGCCACTCTTGGGTTCTAACCTGTTGCCT (site AGCCACACTAG) | 0.0426 |
| AGCCACTCTTGGGTTCTAACCTGTTGCCT (site AGCCACCCTAG) | 0.149 |
| AGCCACTCTTGGGTTCTAACCTGTTGCCT (site AGCCACGCTAG) | 0.153 |
| AGCCACTCTTGGGTTCTAACCTGTTGCCT (site AGCCACTCTAG) | 1.49 |
| AGCCAGGCTTGGGTTCTAACCTGTTGCGG (site AGCCAGGCTCC) | 1.76 |

| Sequence | recombinant barcode read abundance (log10) |
| --- | --- |
| AGCCAGGCTTGGGTTCTAACCTGTTGCGG (site TCGTTTCCTAT) | 0.0575 |
| AGCCCTCCTTGGGTTCTAACCTGTTGCAG (site AGCCCTCCTCT) | 1.86 |
| AGCCCTCCTTGGGTTCTAACCTGTTGCAG (site GAAATAACTAC) | 0.114 |
| AGCCCTCCTTGGGTTCTAACCTGTTGCAT (site AGCCCTCCTAT) | 1.41 |
| AGCCCTCCTTGGGTTCTAACCTGTTGCAT (site AGCGCTCCTAC) | 0.0462 |
| AGCCCTCCTTGGGTTCTAACCTGTTGCTA (site AGCCCTCCTAA) | 0.0446 |
| AGCCCTCCTTGGGTTCTAACCTGTTGCTA (site AGCCCTCCTCA) | 0.449 |
| AGCCCTCCTTGGGTTCTAACCTGTTGCTA (site AGCCCTCCTGA) | 0.222 |
| AGCCCTCCTTGGGTTCTAACCTGTTGCTA (site AGCCCTCCTTA) | 1.37 |
| AGCCCTCCTTGGGTTCTAACCTGTTGCTG (site AGCCCTCCTAA) | 0.0691 |
| AGCCCTCCTTGGGTTCTAACCTGTTGCTG (site AGCCCTCCTCA) | 1.49 |
| AGCCCTCCTTGGGTTCTAACCTGTTGCTG (site AGCCCTCCTGA) | 0.109 |
| AGCCCTCCTTGGGTTCTAACCTGTTGCTG (site AGCCCTCCTTA) | 0.0866 |
| AGCCGAACTTGGGTTCTAACCTGTTGCCT (site AGCCGAACTAG) | 0.832 |
| AGCCGAACTTGGGTTCTAACCTGTTGCCT (site CGCCGAACTAG) | 0.11 |
| AGCCGAACTTGGGTTCTAACCTGTTGCCT (site GGCCGAACTAG) | 0.478 |
| AGCCGAACTTGGGTTCTAACCTGTTGCCT (site TGCCGAACTAG) | 0.0692 |
| AGCCTATCTTGGGTTCTAACCTGTTGCCA (site AGCCTATCTTG) | 0.101 |
| AGCCTATCTTGGGTTCTAACCTGTTGCCA (site CTAGCCGCTAA) | 0.109 |
